What was measured:
[1] = tested on: purified human B lymphocytes; assay: Antibody production, IgM and IgG ELISA of B cell supernatants; assay type: cell-based; settings: 6 days
Experimental: Antibody Production: Purified human B lymphocytes (5×10^5 cells/ml) were cultured in 96-well round-bottom microtiter plates. […] Pilot experiments were performed to optimize the doses of PPARγ and RXR ligands. […] Supernatants were harvested and the concentrations of IgM and IgG were analyzed using human-specific ELISAs (Bethyl Laboratories).

peripheral blood B cells [2] = assay: Plasma cell differentiation, CD38/CD27 surface labeling by flow cytometry; assay type: cell-based, human; settings: for percentage of CD38highCD27high B cells (plasma cells): Rosiglitazone 0.5 μM, 15d-PGJ2 0.2 μM
Experimental: Intracellular and Surface Labeling: B cells were incubated with mouse anti-human CD19-APC (BD Biosciences), anti-human CD38-PE (BD Biosciences) and/or anti-human CD27-APC (BD Biosciences) in cold PBS with sodium azide (0.02%) and BSA (0.3%) for 20 min at 20° C. COX-2 intracellular staining was performed as described previously (Padilla et al., “Human B Lymphocytes and B Lymphomas Express PPAR-γ and Are Killed by PPAR-γ Agonists,” Clin Immunol 103:22-33 (2002), which is hereby incorporated by reference in its entirety). All samples were acquired on a BD Biosciences FACS Calibur flow cytometer and analyzed using FlowJo software (Tree Star, Inc. Ashland, Oreg.).
Peripheral-blood B lymphocytes include both naive and memory B cell populations. These two B cell subsets can be distinguished based on CD27 expression, which is a marker of memory B cells (Agematsu et al., “CD27: A Memory B-cell Marker,” Immunol Today 21:204-206 (2000), each of which is hereby incorporated by reference in its entirety).

human B cells = assay: B cell viability (7-AAD incorporation, cell size, 3H-thymidine incorporation); assay type: cell-based; settings: Rosiglitazone 0.5 μM, 15d-PGJ2 0.2 μM; pilot experiments
[3] = tested on: Cox-2 expression in B cells; assay: Cox-2 intracellular staining of CD19+ B cells, flow cytometry; assay type: cell-based, human; settings: CpG 1 μg/ml; Rosiglitazone 0.5 μM, 15d-PGJ2 0.2 μM; 3% untreated
Experimental: Intracellular and Surface Labeling: B cells were incubated with mouse anti-human CD19-APC (BD Biosciences), anti-human CD38-PE (BD Biosciences) and/or anti-human CD27-APC (BD Biosciences) in cold PBS with sodium azide (0.02%) and BSA (0.3%) for 20 min at 20° C. […] All samples were acquired on a BD Biosciences FACS Calibur flow cytometer and analyzed using FlowJo software (Tree Star, Inc. Ashland, Oreg.).
Therefore, the levels of Cox-2 expression were evaluated following PPARγ ligand treatment.

purified human B cells = assay: B cell proliferation, CFSE cell division by flow cytometry; assay type: cell-based; settings: CpG-activated B cells, 5 days; for cell division compared to vehicle control: Rosiglitazone 0.5 μM, 15d-PGJ2 0.2 μM
Experimental: Proliferation: For cell division, a CellTrace™ CFSE Cell Proliferation Kit (Invitrogen, Carlsbad, Calif.) was used according to the manufacturer's protocol. Briefly, cells were labeled with 0.5 μM CFSE (carboxyfluorescein diacetate succinimidyl ester) for 15 minutes at 37° C., followed by two washes with 1×PBS, and then resuspended in RPMI culture media containing 10% FBS. Cells were then plated at a density of 1×10^5 cells/well in a 96-round bottom plate. Five days later, cells were acquired using a BD Biosciences FACS Calibur flow cytometer and analyzed using FlowJo software (Tree Star, Inc. Ashland, Oreg.).
Five days after activation, cells were analyzed by flow cytometry. […] FIG. 2B illustrates the percent of cell division for three different B cell donors.

[4] = tested on: BLIMP-1 expression in B cells; assay: BLIMP-1 expression in B cells, Western blot densitometry; assay type: cell-based, human; settings: for BLIMP-1 induction over CpG-treated cells (densitometry): CpG 1 μg/ml plus ligand, 72 hrs
Experimental: Western Blots: Whole cell extracts were collected using ELB buffer (50 mM HEPES (pH 7), 250 mM NaCl, 0.1% Nonidet P-40, 5 mM EDTA, 10 mM NaF, 0.1 mM Na3VO4, 50 μM ZnCl2, supplemented with 0.1 mM PMSF, 1 mM DTT, and a mixture of protease and phosphatase inhibitors) and total protein was quantified using bicinchoninic acid protein assay (BCA assay kit) (Pierce, Rockford, Ill.). Twenty-five micrograms of protein was electrophoresed on 8-16% Precise™ protein gels (Pierce, Rockford, Ill.) and transferred to polyvinylidene fluoride (PVDF) membrane (Millipore, Billerica, Mass.). The membranes were analyzed for immunoreactivity with the indicated primary antibody, washed and then incubated with an appropriate horseradish peroxidase-conjugated secondary antibody. The membranes were visualized by chemiluminescence using an ECL kit (Pierce, Rockford, Ill.).
Lastly, BLIMP-1 expression was evaluated. BLIMP-1 is a transcription factor important in B cell differentiation (Shaffer et al., “Blimp-1 Orchestrates Plasma Cell Differentiation by Extinguishing the Mature B Cell Gene Expression Program,” Immunity 17:51-62 (2002), which is hereby incorporated by reference in its entirety). […] When B cells were treated with a combination of CpG and PPARγ ligands, there was a further increase in BLIMP-1 expression.

PPARγ = molecular target: T1, PPARγ (Homo sapiens, UniProt P37231); assay: PPARγ gene reporter analysis (PPRE-luciferase) in transfected B cells; assay type: cell-based; settings: CpG-activated B cells, 24 h treatment; Rosiglitazone 0.5 μM, 15d-PGJ2 0.2 μM
T1 construct: normal B cells were transfected with a PPARγ luciferase reporter construct; endogenous in cells
T1 sequence (P37231 1-505): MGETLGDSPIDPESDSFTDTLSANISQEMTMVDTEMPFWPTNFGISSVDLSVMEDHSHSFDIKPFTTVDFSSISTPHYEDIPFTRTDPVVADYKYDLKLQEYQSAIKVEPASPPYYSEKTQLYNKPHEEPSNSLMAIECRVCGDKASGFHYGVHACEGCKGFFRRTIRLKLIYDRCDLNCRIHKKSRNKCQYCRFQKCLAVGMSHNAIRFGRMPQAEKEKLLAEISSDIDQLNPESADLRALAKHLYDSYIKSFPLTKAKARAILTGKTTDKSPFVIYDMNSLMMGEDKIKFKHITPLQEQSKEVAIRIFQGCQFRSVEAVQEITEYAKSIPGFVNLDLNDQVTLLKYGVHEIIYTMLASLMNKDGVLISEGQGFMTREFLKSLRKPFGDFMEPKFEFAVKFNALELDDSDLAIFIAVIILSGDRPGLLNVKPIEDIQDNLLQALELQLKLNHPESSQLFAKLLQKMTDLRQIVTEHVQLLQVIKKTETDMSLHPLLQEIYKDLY
Experimental: Twenty-four hours after treatments, luciferase activity was assayed using the Promega Luciferase Assay System (Madison, Wis.). Relative light units (RLU) were determined with a Lumicount Microplate Luminometer (Packard Instrument Co., Meriden, Conn., USA). Relative light units (RLU) were normalized to transfection efficiency that was monitored by cotransfection of GFP expression vector.
To test whether the PPARγ ligand concentrations used here activated PPARγ, normal B cells were transfected with a PPARγ luciferase reporter construct.

peripheral blood B cells [5] = settings: Morikawa et al. 2005; cited from earlier work
[6] = CpG 1 μg/ml, 5 days, 9-cis-RA 100 nM

SMILES: CS(=O)(=O)c1ccc(-n2nc(C(F)(F)F)cc2-c2ccc(F)cc2)cc1 [SC-58125]
- IgG production of CpG-stimulated B cells ([1]; addition of SC-58125 10 μM): significantly reduced
- IgM production of CpG-stimulated B cells ([1]; addition of SC-58125 10 μM): significantly reduced
- increased antibody production upon PPARγ ligand treatment ([1]; addition of SC-58125 10 μM, CpG): significantly reduced

SMILES: CN(CCOc1ccc(CC2SC(=O)NC2=O)cc1)c1ccccn1 (stereo not shown) [Rosiglitazone, 5-[4-[2-[N-methyl-N-(2-pyridyl)amino]ethoxy]benzyl]thiazolidine-2,4-dione]
- percentage of CD38highCD27high B cells (plasma cells) (peripheral blood B cells [2]; [6]): 10.7±1.6%
- cell viability (human B cells): did not adversely affect cell viability
- percentage of B cells which express Cox-2 [3]: 36%
- cell division compared to vehicle control (purified human B cells): increased cell division
- BLIMP-1 induction over CpG-treated cells (densitometry) [4]: ~6 fold

SMILES: CCCCCC=CC=C1C(=O)C=C[C@@H]1CC=CCCCC(=O)O [15d-PGJ2, 15-deoxy-Δ^12,14 Prostaglandin J2]
- CD38highCD27high cells, fold over vehicle (peripheral blood B cells [2]; CpG 1 μg/ml, 5 days): ~2 fold
- percentage of CD38highCD27high B cells (plasma cells) (peripheral blood B cells [2]; [6]): 12.5±1.4%
- cell viability (human B cells): did not adversely affect cell viability
- percentage of B cells which express Cox-2 [3]: 43%
- luciferase activity (PPRE reporter) (PPARγ): increased luciferase activity
- cell division compared to vehicle control (purified human B cells): increased cell division
- BLIMP-1 induction over CpG-treated cells (densitometry) [4]: ~9 fold

SMILES: CC1=C(/C=C/C(C)=C/C=C/C(C)=C/C(=O)O)C(C)(C)CCC1 [ATRA, all-trans-retinoic acid]
- CD38 expression (peripheral blood B cells [5]): induces CD38 expression
- antibody production (peripheral blood B cells [5]): increases antibody production

SMILES: O=C(Nc1ccccc1)c1cc([N+](=O)[O-])ccc1Cl [GW9662]
- PPARγ ligand-induced CD38 expression in memory B cells (peripheral blood B cells [2]; with GW9662 500 nM, CpG): attenuated
- effects of PPARγ ligands on IgG production ([1]; with GW9662 500 nM, CpG): abolished
- expression of BLIMP-1 compared to CpG alone ([4]; CpG and GW9662 500 nM): decrease
- increase in BLIMP-1 by Rosiglitazone and 15d-PGJ2 ([4]; CpG-activated B cells, with GW9662 500 nM): dramatically attenuated

SMILES: CC1=C(/C=C/C(C)=C\C=C\C(C)=C\C(=O)O)C(C)(C)CCC1 [9-cis-RA, 9-cis-retinoic acid]
- CD38highCD27high cells, fold over vehicle (peripheral blood B cells [2]; CpG 1 μg/ml, 5 days): ~1.7 fold
- CD38highCD27low cells, fold vs. CpG plus vehicle (peripheral blood B cells [2]; CpG 1 μg/ml, 5 days): ~3.5 fold
- percentage of CD38-expressing naive B cells (CD38highCD27low) (peripheral blood B cells [2]; [6]): 30.2±5.5%
- percentage of CD38highCD27high B cells (plasma cells) (peripheral blood B cells [2]; [6]): 10.3±1.9%
- IgG production over vehicle control ([1]; CpG-activated cells): significantly induced
- IgM production over vehicle control ([1]; CpG-activated cells): significantly induced
- percentage of dividing cells (purified human B cells; ligand alone, 9-cis-RA 100 nM): increased the percentage of dividing cells
